Drawing on patent US20200247800A1, “SUBSTITUTED BICYCLIC HETEROCYCLIC COMPOUNDS AS NADPH OXIDASE INHIBITORS” (Glenmark Pharmaceuticals S.A., priority 2017, published 2020), this text covers inhibition and IC50 for 22 compounds.

For orientation: inhibition means the drop in the measured response relative to a control, in per cent. As usually defined, the IC50 is the point on the concentration scale where inhibition reaches its midpoint.

The assay deals with T1, human NOX4 (Homo sapiens, UniProt Q9NPH5).
T1 construct: expressed in transfected cells; membrane fraction used
T1 sequence (Q9NPH5 1-578): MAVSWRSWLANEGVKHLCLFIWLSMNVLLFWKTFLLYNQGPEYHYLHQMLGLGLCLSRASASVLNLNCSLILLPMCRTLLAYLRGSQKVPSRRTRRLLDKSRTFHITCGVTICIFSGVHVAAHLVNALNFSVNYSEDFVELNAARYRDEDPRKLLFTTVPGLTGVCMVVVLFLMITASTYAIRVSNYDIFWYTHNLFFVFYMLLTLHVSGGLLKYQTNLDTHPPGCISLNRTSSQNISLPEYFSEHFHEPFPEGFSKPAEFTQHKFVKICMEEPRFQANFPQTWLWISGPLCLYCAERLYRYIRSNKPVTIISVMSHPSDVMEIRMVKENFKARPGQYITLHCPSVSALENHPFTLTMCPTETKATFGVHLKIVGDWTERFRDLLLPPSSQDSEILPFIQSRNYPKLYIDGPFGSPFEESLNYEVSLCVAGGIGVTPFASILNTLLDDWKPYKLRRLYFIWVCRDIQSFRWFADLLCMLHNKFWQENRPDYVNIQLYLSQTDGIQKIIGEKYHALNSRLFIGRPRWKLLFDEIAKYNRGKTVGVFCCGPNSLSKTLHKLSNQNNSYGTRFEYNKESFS
T1 sequence (P13498 1-195 partner): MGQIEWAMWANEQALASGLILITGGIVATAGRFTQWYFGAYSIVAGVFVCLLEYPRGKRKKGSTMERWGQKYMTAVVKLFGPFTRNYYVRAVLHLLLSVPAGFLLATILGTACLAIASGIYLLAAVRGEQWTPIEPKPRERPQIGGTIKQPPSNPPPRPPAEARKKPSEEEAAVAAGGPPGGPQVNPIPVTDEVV
As to the kind of experiment: Cell free membrane based in vitro NOX4 assay: H2O2 production by membranes expressing human NOX4, measured with Amplex Red. It is filed as biochemical. The settings on record: for inhibition at 1 µM: 1.0 μM compound, read-out: Percentage inhibition at 1.0 μM; for inhibition at 10 µM: 10.0 μM compound, read-out: Percentage inhibition at 10.0 μM; for IC50: class symbols. Summed up: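 Membranes from HEK cells stably overexpressing human NOX4 were preincubated 20 min with inhibitor in pH 7.4 HEPES buffer containing HRP and Amplex Red, then NADPH was added. H2O2 was followed for 10 min by fluorescence (ex 544/em 590 nm). IC50 from nonlinear regression of % maximal uninhibited response.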

Consider `Cn1nc(CN2CCN(CC(F)(F)F)CC2)c2c(=O)c(O)c(-c3c(F)cccc3F)[nH]c21` [Example 196, 3-((4-(2,2,2-trifluoroethyl)piperazin-1-yl)methyl)-6-(2,6-difluorophenyl)-5-hydroxy-1-methyl-1H-pyrazolo[3,4-b]pyridin-4(7H)-one], for which the inhibition at 1 µM came to 100%, the inhibition at 10 µM stood at 100% and the IC50 fell in the range of 0.1 to 0.15 µM.
With `C[C@@H]1CN(Cc2nn(C)c3[nH]c(-c4c(F)cccc4F)c(O)c(=O)c23)C[C@H](C)O1` [Example 197, 6-(2,6-Difluorophenyl)-3-((2,6-dimethylmorpholino)methyl)-5-hydroxy-1-methyl-1H-pyrazolo[3,4-b]pyridin-4(7H)-one], the inhibition at 1 µM was 100%, the inhibition at 10 µM was 100% and the IC50 lay in the range of 0.1 to 0.15 µM.
Regarding `Cn1nc(CO)c2c(=O)c(O)c(-c3ccccc3Cl)[nH]c21` [Example 198, 6-(2-Chlorophenyl)-5-hydroxy-3-(hydroxymethyl)-1-methyl-1H-pyrazolo[3,4-b]pyridin-4(7H)-one], the inhibition at 1 µM worked out at 87.7%, the inhibition at 10 µM turned out to be 86.7% and the IC50 was in the range of 0.05 to 0.1 µM.
For the compound `Cn1nc(CN2CCOCC2)c2c(=O)c(O)c(-c3ccccc3Cl)[nH]c21` [Example 199, 6-(2-Chlorophenyl)-5-hydroxy-1-methyl-3-(morpholinomethyl)-1H-pyrazolo[3,4-b]pyridin-4(7H)-one], the inhibition at 1 µM was 86.8%, the inhibition at 10 µM came out at 93.5% and the IC50 fell in the range of 0.1 to 0.15 µM.
For `CCc1nn(CCN2C[C@@H](C)O[C@@H](C)C2)c2[nH]c(-c3c(F)cccc3F)c(O)c(=O)c12` [Example 200, 6-(2,6-Difluorophenyl)-1-(2-((2R,6S)-2,6-dimethylmorpholino)ethyl)-3-ethyl-5-hydroxy-1H-pyrazolo[3,4-b]pyridin-4(7H)-one] the same measures were 91.4%, 90.7% and below 0.05 µM.
Taken in the same sequence, the figures for `O=c1c(O)c(-c2c(F)cccc2F)[nH]c2c1c(CN1CCOCC1)nn2C1CC1` [Example 201, 1-Cyclopropyl-6-(2,6-difluorophenyl)-5-hydroxy-3-(morpholinomethyl)-1H-pyrazolo[3,4-b]pyridin-4(7H)-one] were 74%, 87% and above 0.15 µM.
As to `CCc1nn(CCN2C[C@@H](C)O[C@@H](C)C2)c2[nH]c(-c3ccccc3Cl)c(O)c(=O)c12` [Example 202, 6-(2-Chlorophenyl)-1-(2-((2R,6S)-2,6-dimethylmorpholino)ethyl)-3-ethyl-5-hydroxy-1H-pyrazolo[3,4-b]pyridin-4(7H)-one], the inhibition at 1 µM was 82.8%, the inhibition at 10 µM turned out to be 78% and the IC50 is 0.1 to 0.15 µM.
In the case of `CCc1nn(CCO)c2[nH]c(-c3c(F)cccc3F)c(O)c(=O)c12` [Example 203, 6-(2,6-Difluorophenyl)-3-ethyl-5-hydroxy-1-(2-hydroxyethyl)-1H-pyrazolo[3,4-b]pyridin-4(7H)-one], the inhibition at 1 µM stood at 82.5%, the inhibition at 10 µM came out at 77.7% and the IC50 is 0.05 to 0.1 µM.
Taken in the same sequence, the figures for `O=c1c(O)c(-c2c(F)cccc2F)[nH]c2c1c(C1CCOCC1)nn2-c1ccc(F)cc1` [Example 204, 6-(2,6-Difluorophenyl)-1-(4-fluorophenyl)-5-hydroxy-3-(tetrahydro-2H-pyran-4-yl)-1H-pyrazolo[3,4-b]pyridin-4(7H)-one] were 95.2%, 99.7% and 0.1 to 0.15 µM.
Taken in the same sequence, the figures for `CCc1nn(CCN2CCC(F)(F)CC2)c2[nH]c(-c3c(F)cccc3F)c(O)c(=O)c12` [Example 205, 6-(2,6-Difluorophenyl)-1-(2-(4,4-difluoropiperidin-1-yl)ethyl)-3-ethyl-5-hydroxy-1H-pyrazolo[3,4-b]pyridin-4(7H)-one] were 95.9%, 94.6% and 0.05 to 0.1 µM.
In the case of `CCc1nn(CCCN2C[C@@H](C)O[C@@H](C)C2)c2[nH]c(-c3c(F)cccc3F)c(O)c(=O)c12` [Example 206, 6-(2,6-Difluorophenyl)-1-(3-((2R,6S)-2,6-dimethylmorpholino)propyl)-3-ethyl-5-hydroxy-1H-pyrazolo[3,4-b]pyridin-4(7H)-one], the inhibition at 1 µM is 94.6%, the inhibition at 10 µM amounted to 91.3% and the IC50 is 0.05 to 0.1 µM.
On to `CCc1nn(CC2CCOCC2)c2[nH]c(-c3c(F)cccc3F)c(O)c(=O)c12` [Example 207, 6-(2,6-Difluorophenyl)-3-ethyl-5-hydroxy-1-((tetrahydro-2H-pyran-4-yl)methyl)-1H-pyrazolo[3,4-b]pyridin-4(7H)-one], for which the inhibition at 1 µM came to 87.8%, the inhibition at 10 µM was 88.2% and the IC50 was in the range of 0.05 to 0.1 µM.
For the compound `CCc1nn(CC2CCOCC2)c2[nH]c(-c3ccccc3Cl)c(O)c(=O)c12` [Example 208, 6-(2-Chlorophenyl)-3-ethyl-5-hydroxy-1-((tetrahydro-2H-pyran-4-yl)methyl)-1H-pyrazolo[3,4-b]pyridin-4(7H)-one], the inhibition at 1 µM was 82.5%, the inhibition at 10 µM was found to be 71.6% and the IC50 lay within 0.1 to 0.15 µM.
Turning to `Cn1nc(CC2CCOCC2)c2c(=O)c(O)c(-c3c(F)cccc3F)[nH]c21` [Example 209, 6-(2,6-Difluorophenyl)-5-hydroxy-1-methyl-3-((tetrahydro-2H-pyran-4-yl)methyl)-1H-pyrazolo[3,4-b]pyridin-4(7H)-one], the inhibition at 1 µM was found to be 89.5%, the inhibition at 10 µM was determined as 89.8% and the IC50 is 0.05 to 0.1 µM.
Taken in the same sequence, the figures for `CCc1nn(CCN2CCC(F)(F)CC2)c2[nH]c(-c3ccccc3Cl)c(O)c(=O)c12` [Example 210, 6-(2-Chlorophenyl)-1-(2-(4,4-difluoropiperidin-1-yl)ethyl)-3-ethyl-5-hydroxy-1H-pyrazolo[3,4-b]pyridin-4(7H)-one] were 91%, 86.3% and above 0.15 µM.
For `CCc1nn(CCC2CCOCC2)c2[nH]c(-c3c(F)cccc3F)c(O)c(=O)c12` [Example 211] the same measures were 92.4%, 93.7% and 0.05 to 0.1 µM.
`CCc1nn(CCC2CCOCC2)c2[nH]c(-c3ccccc3Cl)c(O)c(=O)c12` [Example 212, 6-(2-Chlorophenyl)-3-ethyl-5-hydroxy-1-(2-(tetrahydro-2H-pyran-4-yl)ethyl)-1H-pyrazolo[3,4-b]pyridin-4(7H)-one]: the inhibition at 1 µM is 81.5%, the inhibition at 10 µM was 71.7% and the IC50 is above 0.15 µM.
As for `CCc1nn(CCC2CCOCC2)c2[nH]c(-c3cccc(C(F)(F)F)c3F)c(O)c(=O)c12` [Example 213, 3-Ethyl-6-(2-fluoro-3-(trifluoromethyl)phenyl)-5-hydroxy-1-(2-(tetrahydro-2H-pyran-4-yl)ethyl)-1H-pyrazolo[3,4-b]pyridin-4(7H)-one], the inhibition at 1 µM came out at 86.9%, the inhibition at 10 µM came to 75.6% and the IC50 is above 0.15 µM.
`CC(C)CN1CCN(Cc2nn(C)c3[nH]c(-c4c(F)cccc4F)c(O)c(=O)c23)CC1` [Example 214, 6-(2,6-Difluorophenyl)-5-hydroxy-3-((4-isobutylpiperazin-1-yl)methyl)-1-methyl-1H-pyrazolo[3,4-b]pyridin-4(7H)-one]: the inhibition at 1 µM is 81.8%, the inhibition at 10 µM stood at 85% and the half-maximal inhibitory concentration (IC50) is above 0.15 µM.
As for `O=c1c(O)c(-c2c(F)cccc2F)[nH]c2c1c(CO)nn2CC1CCOCC1` [Example 215, 6-(2,6-difluorophenyl)-5-hydroxy-3-(hydroxymethyl)-1-((tetrahydro-2H-pyran-4-yl)methyl)-1H-pyrazolo[3,4-b]pyridin-4(7H)-one], the inhibition at 1 µM is 78.8%, the inhibition at 10 µM turned out to be 87.3% and the concentration for half-maximal inhibition (IC50) fell in the range of 0.1 to 0.15 µM.
For `Cn1nc(CN2CCN(C3CC3)CC2)c2c(=O)c(O)c(-c3c(F)cccc3F)[nH]c21` [Example 216, 3-((4-Cyclopropylpiperazin-1-yl)methyl)-6-(2,6-difluorophenyl)-5-hydroxy-1-methyl-1H-pyrazolo[3,4-b]pyridin-4(7H)-one] the same measures were 73.4%, 88.3% and above 0.15 µM.
Consider `O=c1c(O)c(-c2c(F)cccc2F)[nH]c2c1c(CO)nn2CCC1CCOCC1` [Example 217, 6-(2,6-difluorophenyl)-5-hydroxy-3-(hydroxymethyl)-1-(2-(tetrahydro-2H-pyran-4-yl)ethyl)-1H-pyrazolo[3,4-b]pyridin-4(7H)-one], for which the inhibition at 1 µM is 83.8%, the inhibition at 10 µM was determined as 89.7% and the IC50 lay within 0.1 to 0.15 µM.
